One test has as its target T1, hMC4-R (Homo sapiens, UniProt P32245).
T1 construct: expressed in transfected cells
Nature of the test: Competitive inhibition binding assay, 125I-NDP-MSH, hMC4-R. Particulars: 1 μM metallopeptide; 0.4 nM 125I-NDP-MSH; hMC4-R membranes. The protocol:
(§1) A competitive inhibition binding assay was conducted using membranes prepared from hMC3-R, hMC4-R, hMC5-R, and B-16 mouse melanoma cells (containing MC1-R) using 0.4 nM ^125I-NDP-MSH (0.2 nM for MC1-R) (New England Nuclear, Boston, Mass., USA) in 50 mM HEPES buffer containing 1 mM MgCl2, 2 mM CaCl2, and 5 mM KCl, at pH 7.2. The assay tube also contained a chosen concentration of the metallopeptides of this invention, at a 1 μM concentration, for determining inhibition of the binding of ^125I-NDP-MSH to its receptor. Non-specific binding was measured by complete inhibition of binding of ^125I-NDP-MSH in the assay in the presence of 1 μM α-MSH. Incubation was for 90 minutes at 37° C., after which the assay mixture was filtered and the membranes washed three times with ice cold buffer. The filter was dried and counted in a gamma counter for remaining radioactivity bound to the membranes. 100% specific binding was defined as the difference in radioactivity (cpm) bound to cell membranes in the absence and presence of 1 μM α-MSH. The cpm obtained in the presence of metallopeptides of this invention were normalized with respect to 100% specific binding to determine the percent inhibition of ^125I-NDP-MSH binding. Each assay was conducted in triplicate.

In the next test the target is T2, hMC3-R (Homo sapiens, UniProt P41968).
T2 construct: expressed in transfected cells
T2 sequence (P41968 whole entry): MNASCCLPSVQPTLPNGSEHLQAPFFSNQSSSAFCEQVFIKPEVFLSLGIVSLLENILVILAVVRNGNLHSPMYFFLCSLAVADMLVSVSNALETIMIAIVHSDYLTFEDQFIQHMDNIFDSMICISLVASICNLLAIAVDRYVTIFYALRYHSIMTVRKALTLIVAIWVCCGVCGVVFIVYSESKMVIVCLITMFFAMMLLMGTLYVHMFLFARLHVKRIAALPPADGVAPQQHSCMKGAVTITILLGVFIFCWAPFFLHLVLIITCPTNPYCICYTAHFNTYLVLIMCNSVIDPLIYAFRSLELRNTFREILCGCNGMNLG
Nature of the test: Competitive inhibition binding assay, 125I-NDP-MSH, hMC3-R. Particulars: 1 μM metallopeptide; 0.4 nM 125I-NDP-MSH; hMC3-R membranes. Here is the method: as §1

Test [1] concerns the target T3, MC1-R (B-16 mouse melanoma cells) (Mus musculus, UniProt Q01727).
T3 construct: membranes prepared from hMC3-R, hMC4-R, hMC5-R, and B-16 mouse melanoma cells (containing MC1-R); endogenous in cells; host or cells: B-16 mouse melanoma cells
Nature of the test: Competitive inhibition binding assay, 125I-NDP-MSH, MC1-R. Particulars: 1 μM metallopeptide; 0.2 nM 125I-NDP-MSH; B-16 mouse melanoma cell membranes. Here is the method:
as §1

A further test deals with T4, hMC5-R (Homo sapiens, UniProt P33032).
T4 construct: expressed in transfected cells
T4 sequence (P33032 whole entry): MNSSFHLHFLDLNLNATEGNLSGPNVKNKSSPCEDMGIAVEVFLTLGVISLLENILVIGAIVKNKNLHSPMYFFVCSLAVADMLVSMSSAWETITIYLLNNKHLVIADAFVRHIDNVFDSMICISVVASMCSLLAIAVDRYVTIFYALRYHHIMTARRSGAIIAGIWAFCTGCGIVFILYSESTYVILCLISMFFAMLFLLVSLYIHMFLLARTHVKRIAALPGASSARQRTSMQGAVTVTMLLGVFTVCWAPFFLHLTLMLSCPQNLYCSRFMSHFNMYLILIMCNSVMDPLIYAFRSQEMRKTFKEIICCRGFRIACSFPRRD
Nature of the test: Competitive inhibition binding assay, 125I-NDP-MSH, hMC5-R. Particulars: 1 μM metallopeptide; 0.4 nM 125I-NDP-MSH; hMC5-R membranes. Here is the method:
as §1

The text below walks through data of patent US7396814B2, “Metallopeptide compositions for treatment of sexual dysfunction” (Palatin Technologies, Inc., priority 1995, dated 2008).

Non-standard residues stand in square brackets, D forms with d. *: point of attachment. dPhe(4-Cl) = N[C@H](Cc1ccc(Cl)cc1)C(=O)O; Heptanoyl = CCCCCCC(=O)*; Nle = CCCC[C@H](N)C(=O)O; Bn = c1ccc(C*)cc1

T3 sequence (Q01727 whole entry): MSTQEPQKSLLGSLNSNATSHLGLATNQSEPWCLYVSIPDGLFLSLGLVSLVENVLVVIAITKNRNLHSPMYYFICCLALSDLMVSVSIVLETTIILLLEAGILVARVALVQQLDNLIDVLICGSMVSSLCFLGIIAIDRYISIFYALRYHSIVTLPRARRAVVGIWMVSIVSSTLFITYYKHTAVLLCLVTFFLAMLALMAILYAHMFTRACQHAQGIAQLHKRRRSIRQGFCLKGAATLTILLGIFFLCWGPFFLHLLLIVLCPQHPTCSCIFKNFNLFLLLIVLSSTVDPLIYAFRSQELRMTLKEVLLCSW
T1 sequence (P32245 whole entry): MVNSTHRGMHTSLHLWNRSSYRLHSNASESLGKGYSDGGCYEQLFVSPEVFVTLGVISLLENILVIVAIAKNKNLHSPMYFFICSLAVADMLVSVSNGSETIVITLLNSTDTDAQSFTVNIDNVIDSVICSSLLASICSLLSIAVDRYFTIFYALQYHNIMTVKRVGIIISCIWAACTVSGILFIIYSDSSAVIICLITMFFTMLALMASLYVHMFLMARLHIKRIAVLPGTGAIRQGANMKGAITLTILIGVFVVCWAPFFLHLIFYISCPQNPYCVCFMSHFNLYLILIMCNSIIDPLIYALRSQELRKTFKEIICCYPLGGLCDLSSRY

As for Ac-[Nle]AH[dF]CR-OH, the “Percent Inhibition at 1 μM MC4-R” value on hMC4-R is on record as 23%. For the same substance, the “Percent Inhibition at 1 μM MC3-R” value on hMC3-R is on record as 0%. For the same substance, the “Percent Inhibition at 1 μM MC1-R” value in test [1] came to 14%. At hMC5-R, the “Percent Inhibition at 1 μM MC5-R” value was 9%.

As to Ac-[Nle]AH[dF]RGC-OH, the “Percent Inhibition at 1 μM MC4-R” value at hMC4-R came out at 27%. Also, the “Percent Inhibition at 1 μM MC3-R” value on hMC3-R worked out at 3%. The “Percent Inhibition at 1 μM MC1-R” value in test [1] is reported as 26%. For the same substance, at hMC5-R, the “Percent Inhibition at 1 μM MC5-R” value amounted to 23%.

For Ac-[Nle]AH[dF]RC-OH, the “Percent Inhibition at 1 μM MC4-R” value at hMC4-R came out at 37%. For the same substance, the “Percent Inhibition at 1 μM MC3-R” value at hMC3-R is listed as 0%. The “Percent Inhibition at 1 μM MC1-R” value in test [1] was determined as 18%. For the same substance, on hMC5-R, the “Percent Inhibition at 1 μM MC5-R” value is given as 12%.

For Heptanoyl-S(Bn)[dPhe(4-Cl)]RC-NH2, the “Percent Inhibition at 1 μM MC4-R” value on hMC4-R was found to be 38%. On hMC3-R, the “Percent Inhibition at 1 μM MC3-R” value was determined as 13%. In test [1], the “Percent Inhibition at 1 μM MC1-R” value is on record as 30%. Besides, the “Percent Inhibition at 1 μM MC5-R” value at hMC5-R is 26%.
